Tested on: PSMA-expressing cancer xenografts (LNCaP)
Assay: Biodistribution of ^177Lu-labeled HTK03041
Assay type: in vivo, mice
Details: for Tissue (% ID/g): Adrenal glands / Tissue (% ID/g): Blood / Tissue (% ID/g): Bone / Tissue (% ID/g): Brain / Tissue (% ID/g): Fat / Tissue (% ID/g): Heart / Tissue (% ID/g): Intestine / Tissue (% ID/g): Kidneys / Tissue (% ID/g): Lacrimal / Tissue (% ID/g): Liver / Tissue (% ID/g): Lungs / Tissue (% ID/g): Muscle / Tissue (% ID/g): Pancreas / Tissue (% ID/g): Salivary / Tissue (% ID/g): Seminal / Tissue (% ID/g): Spleen / Tissue (% ID/g): Stomach / Tissue (% ID/g): Tail / Tissue (% ID/g): Testes / Tissue (% ID/g): Thyroid / Tissue (% ID/g): Tumor / Tissue (% ID/g): Urine / tumor-to-background contrast ratio Tumor: Blood / tumor-to-background contrast ratio Tumor: Muscle / tumor-to-background contrast ratio Tumor: kidney: ^177Lu
Description: Imaging and biodistribution experiments were performed using NODSCID 1L2RγKO male mice. Mice were anesthetized by inhalation with 2% isoflurane in oxygen, and implanted subcutaneously with 1×10^7 LNCaP cells behind left shoulder. Mice were imaged or used in biodistribution studies when the tumor grew up to reach 5-8 mm in diameter during 5-6 weeks.
SPECT/CT imaging experiments were conducted using the MlLabs (Utrecht, the Netherlands) U-SPECT-II/CT scanner. Each tumor bearing mouse was injected with ˜37 MBq of ^177Lu-labeled HTK03041 through the tail vein under anesthesia (2% isoflurane in oxygen). The mice were allowed to recover and roam freely in their cage and imaged at 1, 4, 24, 72 and 120 hours after injection. At each time point, the mice were sedated again and positioned in the scanner. A 5-min CT scan was conducted first for anatomical reference with a voltage setting at 60 kV and current at 615 μA followed by a 60-min static emission scan acquired in list mode using an ultra-high resolution multi-pinhole rat-mouse (1 mm pinhole size) collimator. Data were reconstructed using the U-SPECT II software with a 20% window width on three energy windows. The photopeak window was centered at 208 keV, with lower scatter and upper scatter windows centered at 170 and 255 keV, respectively. Reconstruction parameters used maximum-likelihood expectation maximization (3 iterations), pixel-based ordered subset expectation maximization (16 subsets), and a post-processing filter (Gaussian blurring) of 0.5 mm. Images were decay corrected to injection time in PMOD (PMOD Technologies, Switzerland) then converted to DICOM for qualitative visualization in Inveon Research Workplace (Siemens Medical Solutions USA, Inc.).
For biodistribution studies, the mice were injected with the radiotracer as described above. At predetermined time points (1 or 3 h for ^68Ga studies; 1, 4, 24, 72, or 120 h for ^177Lu studies), the mice was anesthetized with 2% isoflurane inhalation, and euthanized by CO2 inhalation. Blood was withdrawn immediately from the heart, and the organs/tissues of interest were collected. The collected organs/tissues were weighed and counted using a Perkin Elmer (Waltham, MA) Wizard2 2480 gamma counter. The uptake in each organ/tissue was normalized to the injected dose using a standard curve, and expressed as the percentage of the injected dose per gram of tissue (% ID/g).

O=C([O-])CN1CCN(CC(=O)[O-])CCN(CC(=O)NC[C@H]2CC[C@H](C(=O)N[C@@H](Cc3c4ccccc4cc4ccccc34)C(=O)NCCCC[C@H](NC(=O)N[C@@H](CCC(=O)O)C(=O)O)C(=O)O)CC2)CCN(CC(=O)[O-])CC1.[177Lu+3] [^177Lu-HTK03041]
peaked tumor uptake (LNCaP tumor-bearing mice): ~20 % ID/g
Tissue (% ID/g): Adrenal glands (1 h post-injection): 5.53 ± 1.90 % ID/g
Tissue (% ID/g): Blood (1 h post-injection): 0.84 ± 0.15 % ID/g
Tissue (% ID/g): Bone (1 h post-injection): 0.29 ± 0.07 % ID/g
Tissue (% ID/g): Brain (1 h post-injection): 0.04 ± 0.01 % ID/g
Tissue (% ID/g): Fat (1 h post-injection): 1.09 ± 0.20 % ID/g
Tissue (% ID/g): Heart (1 h post-injection): 2.44 ± 0.43 % ID/g
Tissue (% ID/g): Intestine (1 h post-injection): 1.25 ± 0.15 % ID/g
Tissue (% ID/g): Kidneys (1 h post-injection): 98.6 ± 9.27 % ID/g
Tissue (% ID/g): Lacrimal (1 h post-injection): 0.03 ± 0.04 % ID/g
Tissue (% ID/g): Liver (1 h post-injection): 1.91 ± 0.38 % ID/g
Tissue (% ID/g): Lungs (1 h post-injection): 4.41 ± 0.49 % ID/g
Tissue (% ID/g): Muscle (1 h post-injection): 0.94 ± 0.20 % ID/g
Tissue (% ID/g): Pancreas (1 h post-injection): 1.61 ± 0.24 % ID/g
Tissue (% ID/g): Salivary (1 h post-injection): 5.88 ± 0.82 % ID/g
Tissue (% ID/g): Seminal (1 h post-injection): 1.22 ± 0.85 % ID/g
Tissue (% ID/g): Spleen (1 h post-injection): 8.80 ± 2.53 % ID/g
Tissue (% ID/g): Stomach (1 h post-injection): 0.47 ± 0.18 % ID/g
Tissue (% ID/g): Tail (1 h post-injection): 3.41 ± 3.03 % ID/g
Tissue (% ID/g): Testes (1 h post-injection): 1.01 ± 0.17 % ID/g
Tissue (% ID/g): Thyroid (1 h post-injection): 3.38 ± 0.44 % ID/g
Tissue (% ID/g): Tumor (1 h post-injection): 10.8 ± 1.57 % ID/g
Tissue (% ID/g): Urine (1 h post-injection): 160 ± 49.6 % ID/g
tumor-to-background contrast ratio Tumor: Blood (1 h post-injection): 13.4 ± 4.08
tumor-to-background contrast ratio Tumor: Muscle (1 h post-injection): 12.1 ± 4.21
tumor-to-background contrast ratio Tumor: kidney (1 h post-injection): 0.11 ± 0.02
Tissue (% ID/g): Adrenal glands (4 h post-injection): 3.41 ± 0.54 % ID/g
Tissue (% ID/g): Blood (4 h post-injection): 0.31 ± 0.04 % ID/g
Tissue (% ID/g): Bone (4 h post-injection): 0.45 ± 0.53 % ID/g
Tissue (% ID/g): Brain (4 h post-injection): 0.05 ± 0.05 % ID/g
Tissue (% ID/g): Fat (4 h post-injection): 0.56 ± 0.16 % ID/g
Tissue (% ID/g): Heart (4 h post-injection): 1.69 ± 0.13 % ID/g
Tissue (% ID/g): Intestine (4 h post-injection): 0.95 ± 0.08 % ID/g
Tissue (% ID/g): Kidneys (4 h post-injection): 101 ± 13.3 % ID/g
Tissue (% ID/g): Lacrimal (4 h post-injection): 0.02 ± 0.01 % ID/g
Tissue (% ID/g): Liver (4 h post-injection): 1.46 ± 0.17 % ID/g
Tissue (% ID/g): Lungs (4 h post-injection): 3.20 ± 0.41 % ID/g
Tissue (% ID/g): Muscle (4 h post-injection): 0.56 ± 0.15 % ID/g
Tissue (% ID/g): Pancreas (4 h post-injection): 1.15 ± 0.13 % ID/g
Tissue (% ID/g): Salivary (4 h post-injection): 2.18 ± 0.56 % ID/g
Tissue (% ID/g): Seminal (4 h post-injection): 0.57 ± 0.12 % ID/g
Tissue (% ID/g): Spleen (4 h post-injection): 3.22 ± 1.01 % ID/g
Tissue (% ID/g): Stomach (4 h post-injection): 0.37 ± 0.06 % ID/g
Tissue (% ID/g): Tail (4 h post-injection): 1.06 ± 0.60 % ID/g
Tissue (% ID/g): Testes (4 h post-injection): 0.92 ± 0.10 % ID/g
Tissue (% ID/g): Thyroid (4 h post-injection): 2.10 ± 0.19 % ID/g
Tissue (% ID/g): Tumor (4 h post-injection): 18.7±2.96 % ID/g
Tissue (% ID/g): Urine (4 h post-injection): 84.6 ± 39.3 % ID/g
tumor-to-background contrast ratio Tumor: Blood (4 h post-injection): 60.3 ± 4.81
tumor-to-background contrast ratio Tumor: Muscle (4 h post-injection): 34.4 ± 8.39
tumor-to-background contrast ratio Tumor: kidney (4 h post-injection): 0.19 ± 0.02
Tissue (% ID/g): Adrenal glands (24 h post-injection): 0.76 ± 0.10 % ID/g
Tissue (% ID/g): Blood (24 h post-injection): 0.07 ± 0.00 % ID/g
Tissue (% ID/g): Bone (24 h post-injection): 0.07 ± 0.02 % ID/g
Tissue (% ID/g): Brain (24 h post-injection): 0.01 ± 0.00 % ID/g
Tissue (% ID/g): Fat (24 h post-injection): 0.16 ± 0.02 % ID/g
Tissue (% ID/g): Heart (24 h post-injection): 0.41 ± 0.07 % ID/g
Tissue (% ID/g): Intestine (24 h post-injection): 0.30 ± 0.06 % ID/g
Tissue (% ID/g): Kidneys (24 h post-injection): 20.3 ± 6.51 % ID/g
Tissue (% ID/g): Lacrimal (24 h post-injection): 0.00 ± 0.00 % ID/g
Tissue (% ID/g): Liver (24 h post-injection): 0.42 ± 0.08 % ID/g
Tissue (% ID/g): Lungs (24 h post-injection): 0.83 ± 0.12 % ID/g
Tissue (% ID/g): Muscle (24 h post-injection): 0.15 ± 0.03 % ID/g
Tissue (% ID/g): Pancreas (24 h post-injection): 0.26 ± 0.04 % ID/g
